Like-named read-outs stand apart in the source and are kept apart here.
Test system: respiratory epithelial cells
Details: for expression level change, AQP5 (Probe ID 91275_at) / expression level change, ESTs AI758223 (Probe ID 76769_at) / expression level change, ESTs AI927079 (Probe ID 88716_at) / expression level change, MGC14128 (Probe ID 89360_at) / expression level change, PADI1 (Probe ID 81926_at) / expression level change, ST6GalNAcI (Probe ID 89741_at) / expression level change, CNTN1 (Probe ID 88239_i_at) / expression level change, DKFZP434I1735 (Probe ID 77516_r_at) / expression level change, FLJ10718 (Probe ID 69750_at) / expression level change, LGALS1 (Probe ID 80667_f_at) / expression level change, MGC14128 (Probe ID 86024_at): IL-13 stimulation
[1] = IL-13 vs no stimulation, lot 1 Day 3 AI
[2] = IL-13 vs no stimulation, lot 1 Day 3 IMM

IL-13: human IL-13 (Peprotech, Inc.) added to the medium at 50 ng/mL to stimulate respiratory epithelial cells
SLC21A12 (87860_s_at) expression change upon IL-13 stimulation (HG-U95E, lot 2, Day 7): 2.8
rab11-FIP1 (89338_at) expression change upon IL-13 stimulation (HG-U95E, lot 2, Day 7): 14.6
AA199856 (72960_s_at) expression change upon IL-13 stimulation (HG-U95E, lot 2, Day 7, AI): 5.5
AA806114 (80826_at) expression change upon IL-13 stimulation (HG-U95E, lot 2, Day 7, AI): 2
AI803648 (89255_at) expression change upon IL-13 stimulation (HG-U95E, lot 2, Day 7, AI): 2.4
AI859144, KIAA1127 (77546_at) expression change upon IL-13 stimulation (HG-U95E, lot 2, Day 7, AI): 9.8
AI984061 (89834_at) expression change upon IL-13 stimulation (HG-U95E, lot 2, Day 7, AI): 3.1
AW024819 (72867_at) expression change upon IL-13 stimulation (HG-U95E, lot 2, Day 7, AI): 2.3
BAL (69619_at) expression change upon IL-13 stimulation (HG-U95E, lot 2, Day 7, AI): 2.4
BCAT1 (72962_at) expression change upon IL-13 stimulation (HG-U95E, lot 2, Day 7, AI): 3.7
CLDN1 (77660_at) expression change upon IL-13 stimulation (HG-U95E, lot 2, Day 7, AI): 5.4
EHF (8S090_at) expression change upon IL-13 stimulation (HG-U95E, lot 2, Day 7, AI): 3
EHF (85092_g_at) expression change upon IL-13 stimulation (HG-U95E, lot 2, Day 7, AI): 7
EPPK1 (86507_at) expression change upon IL-13 stimulation (HG-U95E, lot 2, Day 7, AI): 3.2
FLJ20281 (83376_at) expression change upon IL-13 stimulation (HG-U95E, lot 2, Day 7, AI): 2.6
FLJ20989 (91420_at) expression change upon IL-13 stimulation (HG-U95E, lot 2, Day 7, AI): 2.1
FLJ21415 (89902_at) expression change upon IL-13 stimulation (HG-U95E, lot 2, Day 7, AI): 2.7
FLJ22833 (67329_at) expression change upon IL-13 stimulation (HG-U95E, lot 2, Day 7, AI): 4.2
GCNT3 (77751_at) expression change upon IL-13 stimulation (HG-U95E, lot 2, Day 7, AI): 2
KIAA1685 (83541_at) expression change upon IL-13 stimulation (HG-U95E, lot 2, Day 7, AI): 2
MASL1 (89651_at) expression change upon IL-13 stimulation (HG-U95E, lot 2, Day 7, AI): 4.2
MFHAS1 (87816_g_at) expression change upon IL-13 stimulation (HG-U95E, lot 2, Day 7, AI): 2.7
RIG-1 (77749_at) expression change upon IL-13 stimulation (HG-U95E, lot 2, Day 7, AI): 2.3
SCYA26 (90189_at) expression change upon IL-13 stimulation (HG-U95E, lot 2, Day 7, AI): 29.8
expression level change, AQP5 (Probe ID 91275_at) (lot 1, Day 3, AI): −7.7
expression level change, ESTs AI758223 (Probe ID 76769_at) (lot 1, Day 3, AI): −3.6
expression level change, ESTs AI927079 (Probe ID 88716_at) (lot 1, Day 3, AI): −2.7
expression level change, MGC14128 (Probe ID 89360_at) (lot 1, Day 3, AI): −2.1
expression level change, PADI1 (Probe ID 81926_at) (lot 1, Day 3, AI): −6.1
expression level change, ST6GalNAcI (Probe ID 89741_at) (lot 1, Day 3, AI): −2.5
expression level change, AQP5 (Probe ID 91275_at) (lot 1, Day 3, IMM): −3.8
expression level change, ESTs AI758223 (Probe ID 76769_at) (lot 1, Day 3, IMM): −2.1
expression level change, MGC14128 (Probe ID 89360_at) (lot 1, Day 3, IMM): −2.6
expression level change, AQP5 (Probe ID 91275_at) (lot 1, Day 7, AI): −3.7
expression level change, CNTN1 (Probe ID 88239_i_at) (lot 1, Day 7, AI): −2
expression level change, DKFZP434I1735 (Probe ID 77516_r_at) (lot 1, Day 7, AI): −2
expression level change, ESTs AI758223 (Probe ID 76769_at) (lot 1, Day 7, AI): −14.8
expression level change, ESTs AI927079 (Probe ID 88716_at) (lot 1, Day 7, AI): −12.9
expression level change, FLJ10718 (Probe ID 69750_at) (lot 1, Day 7, AI): −3
expression level change, LGALS1 (Probe ID 80667_f_at) (lot 1, Day 7, AI): −7.2
expression level change, MGC14128 (Probe ID 86024_at) (lot 1, Day 7, AI): −4
expression level change, MGC14128 (Probe ID 89360_at) (lot 1, Day 7, AI): −3.8
expression level change, PADI1 (Probe ID 81926_at) (lot 1, Day 7, AI): −6.1
expression level change, ST6GalNAcI (Probe ID 89741_at) (lot 1, Day 7, AI): −2.4
expression level change, CNTN1 (Probe ID 88239_i_at) (lot 1, Day 7, IMM): −2.7
expression level change, ESTs AI758223 (Probe ID 76769_at) (lot 1, Day 7, IMM): −15.7
expression level change, ESTs AI927079 (Probe ID 88716_at) (lot 1, Day 7, IMM): −10.7
expression level change, FLJ10718 (Probe ID 69750_at) (lot 1, Day 7, IMM): −4.7
expression level change, LGALS1 (Probe ID 80667_f_at) (lot 1, Day 7, IMM): −5.2
expression level change, MGC14128 (Probe ID 86024_at) (lot 1, Day 7, IMM): −2.9
expression level change, MGC14128 (Probe ID 89360_at) (lot 1, Day 7, IMM): −2.9
expression level change, PADI1 (Probe ID 81926_at) (lot 1, Day 7, IMM): −7.6
expression level change, ST6GalNAcI (Probe ID 89741_at) (lot 1, Day 7, IMM): −4.3
expression level change, AQP5 (Probe ID 91275_at) (lot 2, Day 3, AI): −14.3
expression level change, CNTN1 (Probe ID 88239_i_at) (lot 2, Day 3, AI): −3.8
expression level change, ESTs AI758223 (Probe ID 76769_at) (lot 2, Day 3, AI): −9.6
expression level change, ESTs AI927079 (Probe ID 88716_at) (lot 2, Day 3, AI): −7
expression level change, LGALS1 (Probe ID 80667_f_at) (lot 2, Day 3, AI): −2.5
expression level change, MGC14128 (Probe ID 86024_at) (lot 2, Day 3, AI): −2.4
expression level change, PADI1 (Probe ID 81926_at) (lot 2, Day 3, AI): −6.7
expression level change, ST6GalNAcI (Probe ID 89741_at) (lot 2, Day 3, AI): −8.8
expression level change, AQP5 (Probe ID 91275_at) (lot 2, Day 7, AI): −7.7
expression level change, CNTN1 (Probe ID 88239_i_at) (lot 2, Day 7, AI): −3.3
expression level change, DKFZP434I1735 (Probe ID 77516_r_at) (lot 2, Day 7, AI): −2.7
expression level change, ESTs AI927079 (Probe ID 88716_at) (lot 2, Day 7, AI): −18.5
expression level change, FLJ10718 (Probe ID 69750_at) (lot 2, Day 7, AI): −3.6
expression level change, LGALS1 (Probe ID 80667_f_at) (lot 2, Day 7, AI): −8.2
expression level change, MGC14128 (Probe ID 86024_at) (lot 2, Day 7, AI): −2.8
expression level change, MGC14128 (Probe ID 89360_at) (lot 2, Day 7, AI): −4
expression level change, PADI1 (Probe ID 81926_at) (lot 2, Day 7, AI): −6.8
expression level change, ST6GalNAcI (Probe ID 89741_at) (lot 2, Day 7, AI): −8.4
AKR1B10 (37482_at) expression change [1]: −6.5
AKR1C3 (37399_at) expression change [1]: −3.3
AREG (34898_at) expression change [1]: −2.3
BDKRB2 (39310_at) expression change [1]: −2.1
BENE (33331_at) expression change [1]: −3.7
CTSL2 (40717_at) expression change [1]: −2.8
DUSP1 (1005_at) expression change [1]: −2.8
GABRE (34280_at) expression change [1]: −2
GPNMB (38379_at) expression change [1]: −3.3
IGFBP3 (1586_at) expression change [1]: −2.4
IGFBP3 (37319_at) expression change [1]: −2.7
IGFBP6 (1736_at) expression change [1]: −3.6
IMPA2 (36496_at) expression change [1]: −2.8
LOH11CR2A (38151_at) expression change [1]: −2.1
MMP9 (31859_at) expression change [1]: −25.5
MMP10 (1006_at) expression change [1]: −6.3
MSMB (32149_at) expression change [1]: −8.6
NDRG1 (36933_at) expression change [1]: −4.9
NOTCH3 (38750_at) expression change [1]: −2.9
PFTK1 (36502_at) expression change [1]: −3.9
PSCA (33792_at) expression change [1]: −6
RARRES1 (1042_at) expression change [1]: −3.1
RARRES1 (33505_at) expression change [1]: −2.2
RDC1 (34288_at) expression change [1]: −4.1
S100A8 (41096_at) expression change [1]: −5.4
SEC14L2 (32817_at) expression change [1]: −2.1
SERPINB5 (862_at) expression change [1]: −2.2
SERPINE1 (672_at) expression change [1]: −12
SERPINE1 (38125_at) expression change [1]: −6.9
STK39 (39120_at) expression change [1]: −3.9
c-fos (1915_s_at) expression change [1]: −2
c-fos (1916_s_at) expression change [1]: −2.2
AKR1B10 (37482_at) expression change [2]: −2.8
APM2 (32527_at) expression change [2]: −2.1
AREG (34898_at) expression change [2]: −4.2
